From PMC5572369 (Frontiers in Microbiology, 2017)

Key:
PrbP [1] = biological target: T1, PrbP (Candidatus Liberibacter asiaticus, UniProt A0ABM5NE52)
T1 construct: gene WSI_01420

PrbP [2] = biological target: T1, PrbP; remark: listed apart in the source

SMILES: Cc1c(Cl)cccc1Nc1ccccc1C(=O)O [tolfenamic acid]
- concentration for complete disruption of PrbP/PrplK complex (PrbP [1]): 350 µM
- % decrease in transcription at 500 μM (PrbP [2]): 79%
